Columns and labels:
[1] = tested on: protein processing by PMIX and PMX in P. falciparum; assay: Processing inhibition assays (immunoblot of merozoites and supernatants); assay type: cell-based, Plasmodium falciparum; settings: WM4 40 nM, WM382 2.5 nM; for AMA1 processing in merozoites / ASP processing / MTRAP processing / PMIX processing in parasites / RAP1 processing / RON3 processing / Rh1 processed fragments, release into the supernatant / SERA5 processing: E64 10 μM
Method: Processing inhibition assays were performed as previously described ([Boyle et al., 2010]). Synchronized late trophozoite/early schizont cultures to which protease inhibitors had already been added, were passed over LD magnetic columns (Miltenyi Biotech) to remove uninfected erythrocytes. The cysteine protease inhibitor E64 (Sigma) was used at 10 μM. […] A control dish without any protease inhibitor was also included. Parasites were eluted from columns with complete RPMI 1640 culture medium to which the appropriate inhibitor at the same concentration had been added. Eluted parasites were adjusted to 5x10^6 schizonts/mL and 150 ul added per well of a 96-well flat-bottomed culture dish. […] Parasites from each condition were spun at 10000 g/10 min so that merozoite and supernatant fractions could be separately collected. Proteins from both fractions were extracted with Reducing sample buffer and separated on 4%–12% or 3%–8% acrylamide gels (NuPAGE, Invitrogen).

[2] = tested on: P. falciparum strains resistant to chloroquine, mefloquine, artemisinin, and atovaquone; assay: EC50 for P. falciparum strains resistant to known antimalarials; assay type: cell-based, Plasmodium falciparum; settings: Figure S2
Method: After 72 h incubation at 37°C each well was fixed at room temperature for 30 min with 50 μL of 0.25% glutaraldehyde (ProSciTech) diluted in PBS. Following centrifugation at 1200 rpm for 1 min, supernatants were discarded and parasites were stained with 50 μL of 5X SYBR Green (Invitrogen) diluted in PBS. 50,000 cells were counted by flow cytometry using a Cell Lab Quanta SC – MPL Flow Cytometer (Beckman Coulter) ([Bacon et al., 2007]). Growth was expressed as a percentage of the parasitemia obtained using a vehicle control. All samples were tested in triplicate. EC50 values were determined using GraphPad Prism.

[3] = tested on: P. falciparum schizonts (3D7); assay: P. falciparum schizont egress inhibition assay; assay type: cell-based, Plasmodium falciparum; settings: compared with control
Method: Parasites purified by magnet separation (MACS; Miltenyi Biotec) were eluted into complete RPMI containing 1 nM Compound 1 (C1) to prevent further egress and synchronize egress to within a 5 min window ([Pino et al., 2017]). When schizont preparations were fully mature, the C1 was washed out with warm complete RPMI-HEPES medium and schizonts transferred to a microscopy chamber for live video time lapse (1 frame per 0.5 s) imaging under DIC conditions using a Zeiss Live Cell Axio observer microscope with x63 oil immersion objective and Zen Blue software used for image capture. Videos (Videos S1 and S2) were processed using Fiji (https://www.nature.com/articles/nmeth.2019). Total parasite numbers and egress events were calculated over 5 min window and expressed as average ± SD of 3 replicate experiments. Because the purified late-stage parasites cannot be fully synchronized to egress within the observation time window, only a proportion of the schizonts will egress during the period of observation. Because all treatment groups originated from the same culture (ie those treated with compound and DMSO vehicle control) the developmental stage is consistent between treatments and the difference in egress quantitation can be attributable to the drug treatment.

[4] = molecular target: T1, recombinant PMX protein (rPMX) (Plasmodium falciparum, UniProt Q8IAS0); assay: biochemical
Target sequence in this assay (Q8IAS0 222-573): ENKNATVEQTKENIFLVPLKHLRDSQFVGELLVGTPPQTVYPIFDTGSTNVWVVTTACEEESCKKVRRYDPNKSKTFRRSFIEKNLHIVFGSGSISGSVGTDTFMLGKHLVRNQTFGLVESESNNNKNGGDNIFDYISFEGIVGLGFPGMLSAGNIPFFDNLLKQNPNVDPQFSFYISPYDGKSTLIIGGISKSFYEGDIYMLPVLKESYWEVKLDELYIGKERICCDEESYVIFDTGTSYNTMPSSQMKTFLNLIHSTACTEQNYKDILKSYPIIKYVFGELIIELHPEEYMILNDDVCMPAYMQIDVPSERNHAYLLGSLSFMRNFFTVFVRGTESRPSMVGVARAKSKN
Method: All wells were backfilled to 200 nL DMSO such that it remains constant across the assay plates (1% final). IC50 values were calculated by Dotmatics 5.3 and Spotfire 7.11.1 software using a nonlinear regression four-parameter fit analysis. The equation used is sigmoidal dose response (variable slope), Y = bottom + (top − bottom)/(1+10((logEC50 − X) × Hill Slope)). Compound Ki values were calculated from the IC50s using the Cheng-Prusoff equation, Ki = IC50/(1 + [S]/Km).
All compound potency assays were conducted in 20 μl total volume. For each assay, 10 μl of recombinant enzymes in respective assay buffers (Table) were dispensed into compound containing assay plates using a Multidrop Combi dispenser and allowed to incubate for 15 min. The reactions were started with a further 10 μl addition of FRET peptide substrates and reactions incubated at 37 °C for various times (Table).Samples were excited at 340 nm and fluorescence emission measured at 492 nm using an Envision fluorescence plate reader (Perkin-Elmer).

[5] = tested on: HepG2 cells; assay: EC50 for HepG2 cells; assay type: cell-based; settings: Homo sapiens
[6] = tested on: P. berghei; assay: Peters' 4-day suppressive test for P. berghei infection in mice; assay type: in vivo, Plasmodium berghei; settings: 4 days
Method: For results shown in Figure 1 A male Swiss mice were infected intraperitoneally (IP) with 1 × 10^6 P. berghei ANKA-parasitised red blood cells withdrawn from a previously infected donor mouse. Test compounds were prepared in a vehicle consisting of 10% DMSO/90% Solutol (5% Solutol® HS-15 in 0.9% saline). […] Peripheral blood samples were taken 24 h after administration of the last dose, and parasitemia was measured by microscopic analysis of Giemsa-stained blood smears. Parasitemia values were averages for 6 mice per group and are expressed as percent parasitemia. For results shown in Figure 4A ‘donor’ female Swiss mice were infected intraperitoneally (IP) with blood stage P. berghei parasites constitutively expressing GFP (P. berghei ANKA GFPcon 259cl2 ([Franke-Fayard et al., 2004]). Three days later, groups of 4 ‘acceptor’ Swiss mice were infected intravenously (IV) with 1 × 10^7 parasitised erythrocytes from the ‘donor’ mice. Two h post infection, experimental mice (4 per cohort) were left untreated (control mice) or treated orally on 4 consecutive days with test drugs formulated in 20% DMSO/60% PG/20% water (v/v/v) or chloroquine dissolved in water. […] Peripheral blood samples were taken 12 h after the last treatment, and parasitemia measured by flow cytometry (proportion of GFP-positive cells in 100,000 recorded events using FACSCalibur, BD) and microscopic analysis of Giemsa-stained blood smears. Parasitemia values were averages for 4 mice per group and are expressed as percent parasitemia.

[7] = tested on: P. falciparum merozoites (3D7); assay: Invasion assay; assay type: cell-based, Plasmodium falciparum; settings: 40 nM WM4; 2.5 nM WM382; merozoites released by mechanical rupture
Method: Late-stage parasites (> 40 h post invasion) were enriched by magnet separation (MACS; Miltenyi Biotec) and allowed to develop to fully segmented schizont-stage parasites. To prevent schizont rupture and merozoites release, control parasites were incubated with 1 μM compound 1 (C1). […] Filtrate containing purified merozoites was immediately added to fresh erythrocytes (70%–80% hematocrit), incubated in a shaker (1,100 rpm) at 37°C for 20 min to allow invasion of host cells, and then diluted to 2% hematocrit. After 24 h incubation at 37°C, invasion was evaluated by measuring parasitemia by microscopy (Giemsa-stained thin smears) and flow cytometry (100,000 cells counted with FACSCalibur, BD).

[8] = molecular target: T1, recombinant PMX protein (rPMX); assay type: biochemical, P. falciparum; set-up: full-length enzyme with prodomain and catalytic domain (pro-cat); 8xHis (C); made in house; host or cells: Spodoptera frugiperda (sf21) insect cells, baculovirus, secreted; compound added to the expression culture; settings: insect cell expression
Target sequence in this assay (Q8IAS0 27-573): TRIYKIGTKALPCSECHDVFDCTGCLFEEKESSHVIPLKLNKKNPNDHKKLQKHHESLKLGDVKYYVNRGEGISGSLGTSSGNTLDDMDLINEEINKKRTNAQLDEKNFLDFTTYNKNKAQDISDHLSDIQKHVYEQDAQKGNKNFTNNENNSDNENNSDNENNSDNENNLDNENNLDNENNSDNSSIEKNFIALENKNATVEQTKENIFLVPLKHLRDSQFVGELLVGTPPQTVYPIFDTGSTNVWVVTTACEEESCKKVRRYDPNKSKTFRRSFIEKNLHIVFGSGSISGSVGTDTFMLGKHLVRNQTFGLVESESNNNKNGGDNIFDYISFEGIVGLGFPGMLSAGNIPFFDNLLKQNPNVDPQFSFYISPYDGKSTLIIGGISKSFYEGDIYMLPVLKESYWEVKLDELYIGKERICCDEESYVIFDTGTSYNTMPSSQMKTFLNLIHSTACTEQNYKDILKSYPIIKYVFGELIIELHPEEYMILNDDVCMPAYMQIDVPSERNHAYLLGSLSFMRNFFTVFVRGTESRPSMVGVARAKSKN

Q: With CC(NC(=O)c1cccc(C(c2ccccc2)N2C(=N)NC(C)(C(C)C)CC2=O)c1)c1ccccc1 (racemic) [WM4] as the compound, how does the “AMA1 processing in merozoites” value [1] read?
A: inhibited cleavage

Q: What about the ASP processing [1] of the same compound?
A: ASP was processed

Q: What about the MTRAP processing [1] of the same compound?
A: did not inhibit its processing

Q: What about the “PMIX processing in parasites” value [1] of the same compound?
A: not inhibited

Q: And the RAP1 processing [1]?
A: processing of RAP1 to p69 was inhibited

Q: And the RON3 processing [1]?
A: did not block processing

Q: And the “Rh1 processed fragments, release into the supernatant” value [1]?
A: the large fragment cleaved by ROM4 was not released into the supernatant

Q: What about the SERA5 processing [1] of the same compound?
A: accumulation of unprocessed SERA5

Q: And the EBA140 processing [1]?
A: inhibited by both compounds

Q: What about the EBA175 processing [1] of the same compound?
A: inhibited a cleavage event

Q: And the EBA181 processing [1]?
A: a predominant unprocessed form was evident

Q: And the “MSP1 cleavage at the known SUB1 sites” value [1]?
A: inhibited

Q: And the “MSP1 cleavage by SUB2” value [1]?
A: also inhibited

Q: And the “PMX processing in the parasite” value [1]?
A: blocked cleavage of PMX

Q: And the Rh5 processing [1]?
A: blocked processing of Rh5

Q: What about the Ripr processing [1] of the same compound?
A: inhibited

Q: What about the “SUB2 second processing event” value [1] of the same compound?
A: inhibited this second processing event

Q: And the “processing of Rh2a, Rh2b and Rh4” value [1]?
A: significantly inhibited processing

Q: What about the “cross-resistance in drug resistant P. falciparum strains” value [2] of the same compound?
A: no cross-resistance

Q: What about the “egress of merozoites from the erythrocyte” value [3] of the same compound?
A: potently inhibited egress of merozoites

Q: What about the IC50 [4] of the same compound?
A: 0.81 nM

Q: What about the Ki [4] of the same compound?
A: 0.5 ± 0.2 nM

Q: And the EC50 [5]?
A: 14200 ± 2300 nM

Q: And the “in vivo activity against P. berghei infection” value ([6]; intraperitoneal, 20 mpk q.d., Swiss mice)?
A: partial efficacy

Q: What about the “ability of merozoites to invade erythrocytes” value [7] of the same compound?
A: significantly less able to invade

Q: What about the “cleavage of rPMX into catalytic and pro-domain” value [8] of the same compound?
A: cleavage was inhibited

Q: What does the source list for CCC1(CC)CC(=O)N([C@@H]2CCOc3ccc(C(=O)N[C@H]4CC(C)(C)Oc5ccccc54)cc32)C(=N)N1 [WM382]?
A: AMA1 processing in merozoites [1]: inhibited cleavage; ASP processing [1]: cleavage was inhibited; MTRAP processing [1]: inhibited processing, although not completely; PMIX processing in parasites [1]: inhibited processing; RAP1 processing [1]: prevented production of both processed forms; RON3 processing [1]: did and the full-length protein, as well as an additional processed product (p55), were detected; Rh1 processed fragments, release into the supernatant [1]: the large fragment cleaved by ROM4 was not released into the supernatant; SERA5 processing [1]: accumulation of unprocessed SERA5; EBA140 processing [1]: inhibited by both compounds; EBA175 processing [1]: inhibited a cleavage event; EBA181 processing [1]: a predominant unprocessed form was evident; MSP1 cleavage at the known SUB1 sites [1]: inhibited; MSP1 cleavage by SUB2 [1]: higher activity; PMX processing in the parasite [1]: blocked cleavage of PMX; Rh5 processing [1]: blocked processing of Rh5; Ripr processing [1]: inhibited; SUB2 second processing event [1]: inhibited this second processing event; processing of Rh2a, Rh2b and Rh4 [1]: significantly inhibited processing; cross-resistance in drug resistant P. falciparum strains [2]: no cross-resistance; egress of merozoites from the erythrocyte [3]: potently inhibited egress of merozoites; IC50 [4]: 0.06 nM; Ki [4]: 0.035 ± 0.008 nM; EC50 [5]: 24800 ± 2200 nM; in vivo efficacy against P. berghei ([6]; oral, 20 mg/kg (mpk) b.i.d.): significantly greater in vivo efficacy than WM4 and WM5; ability of merozoites to invade erythrocytes [7]: unable to invade erythrocytes; cleavage of rPMX into catalytic and pro-domain [8]: cleavage was inhibited
